Source: patent US8546381B2, “Bridged heterocyclic compounds and methods of use” (Medivation Technologies, Inc., priority 2008, dated 2013)

Key:
[1] = target: T1, human recombinant adrenergic α2B receptor (Homo sapiens, UniProt P18089); experiment: Adrenergic α2B radioligand binding ([3H]Rauwolscine); conditions: for inhibition at 1 µM: read-out: Adrenergic α2B, inhibition of ligand binding (1 μM)
T1 construct: expressed in transfected cells; host or cells: CHO-K1 cells
T1 sequence (P18089 1-450): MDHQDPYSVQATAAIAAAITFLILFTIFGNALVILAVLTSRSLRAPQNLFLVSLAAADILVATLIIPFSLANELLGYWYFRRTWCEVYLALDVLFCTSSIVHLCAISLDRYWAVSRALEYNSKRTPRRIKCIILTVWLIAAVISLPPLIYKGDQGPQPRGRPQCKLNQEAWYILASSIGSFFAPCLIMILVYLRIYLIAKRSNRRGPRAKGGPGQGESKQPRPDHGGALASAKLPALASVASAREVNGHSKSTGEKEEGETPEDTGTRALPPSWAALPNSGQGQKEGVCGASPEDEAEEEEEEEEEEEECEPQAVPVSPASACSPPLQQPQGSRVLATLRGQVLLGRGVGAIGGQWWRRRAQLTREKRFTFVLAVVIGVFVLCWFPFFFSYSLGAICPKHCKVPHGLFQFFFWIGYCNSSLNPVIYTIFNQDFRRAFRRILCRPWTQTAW
Protocol: To evaluate in radioligand binding assays the activity of compounds of the invention, human recombinant adrenergic α2B receptor expressed in Chinese hamster ovary (CHO-K1) cells (Uhlen S et al. Eur J. Pharmacol. 343(1):93, 1998) in a modified Tris-HCl buffer (50 mM Tris-HCl, pH 7.4, 12.5 mM MgCl2, 1 mM EDTA, 0.2% BSA) was used. Compounds of the invention were incubated with 2.5 nM [^3H]Rauwolscine for 60 minutes at 25° C. Non-specific binding was estimated in the presence of 10 μM Prozosin. Receptor proteins were filtered and washed, the filters were then counted to determine [^3H]Rauwolscine specifically bound. Compounds were screened at 1 μM or lower, using 1% DMSO as vehicle. Biochemical assay results are presented as the percent inhibition of specific binding in Table 3.

[2] = target: T2, human recombinant adrenergic α2A receptor (Homo sapiens, UniProt P08913); experiment: Adrenergic α2A radioligand binding ([3H]MK-912); conditions: for inhibition at 1 µM: read-out: Adrenergic α2A, inhibition of ligand binding (1 μM)
T2 construct: expressed in transfected cells; host or cells: insect Sf9 cells
T2 sequence (P08913 1-465): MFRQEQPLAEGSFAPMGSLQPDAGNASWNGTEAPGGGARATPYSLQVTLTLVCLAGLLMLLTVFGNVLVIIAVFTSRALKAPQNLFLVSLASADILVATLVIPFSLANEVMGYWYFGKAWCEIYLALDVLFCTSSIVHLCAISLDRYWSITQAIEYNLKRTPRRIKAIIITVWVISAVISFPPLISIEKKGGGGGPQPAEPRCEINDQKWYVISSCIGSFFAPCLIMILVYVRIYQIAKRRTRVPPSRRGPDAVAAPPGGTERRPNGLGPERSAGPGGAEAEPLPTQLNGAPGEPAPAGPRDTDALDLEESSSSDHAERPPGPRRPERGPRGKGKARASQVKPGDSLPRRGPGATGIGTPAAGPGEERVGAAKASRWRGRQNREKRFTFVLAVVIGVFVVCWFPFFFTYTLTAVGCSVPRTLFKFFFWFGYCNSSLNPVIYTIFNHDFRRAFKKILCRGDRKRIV
Protocol: To evaluate in radioligand binding assays the activity of compounds of the invention, human recombinant adrenergic α2A receptor expressed in insect Sf9 cells (Uhlen S et al. J Pharmacol Exp Ther. 271:1558, 1994) in a modified Tris-HCl buffer (50 mM Tris-HCl, pH 7.4, 12.5 mM MgCl2, 2 mM EDTA) was used. Compounds of invention were incubated with 1 nM [^3H]MK-912 for 60 minutes at 25° C. MK912 is (2S-trans)-1,3,4,5′,6,6′,7,12b-octahydro-1′,3′-dimethyl-spiro[2H-benzofuro[2,3-a]quinolizine-2,4′(1′H) -pyrimidin]-2′(3′H)-one hydrochloride Non-specific binding was estimated in the presence of 10 μM WB-4101 (2-(2,6-Dimethoxyphenoxyethyl)aminomethyl-1,4-benzodioxane hydrochloride). Receptor proteins were filtered and washed, the filters were then counted to determine [^3H]MK-912 specifically bound. Compounds were screened at 1 μM or lower, using 1% DMSO as vehicle. Biochemical assay results are presented as the percent inhibition of specific binding in Table 3.

[3] = target: T3, human recombinant adrenergic α1D receptor (Homo sapiens, UniProt P25100); experiment: Adrenergic α1D radioligand binding ([3H]Prozosin); conditions: for inhibition at 1 µM: read-out: Adrenergic α1D, inhibition of ligand binding (1 μM)
T3 construct: expressed in transfected cells; host or cells: HEK-293 cells
T3 sequence (P25100 1-572): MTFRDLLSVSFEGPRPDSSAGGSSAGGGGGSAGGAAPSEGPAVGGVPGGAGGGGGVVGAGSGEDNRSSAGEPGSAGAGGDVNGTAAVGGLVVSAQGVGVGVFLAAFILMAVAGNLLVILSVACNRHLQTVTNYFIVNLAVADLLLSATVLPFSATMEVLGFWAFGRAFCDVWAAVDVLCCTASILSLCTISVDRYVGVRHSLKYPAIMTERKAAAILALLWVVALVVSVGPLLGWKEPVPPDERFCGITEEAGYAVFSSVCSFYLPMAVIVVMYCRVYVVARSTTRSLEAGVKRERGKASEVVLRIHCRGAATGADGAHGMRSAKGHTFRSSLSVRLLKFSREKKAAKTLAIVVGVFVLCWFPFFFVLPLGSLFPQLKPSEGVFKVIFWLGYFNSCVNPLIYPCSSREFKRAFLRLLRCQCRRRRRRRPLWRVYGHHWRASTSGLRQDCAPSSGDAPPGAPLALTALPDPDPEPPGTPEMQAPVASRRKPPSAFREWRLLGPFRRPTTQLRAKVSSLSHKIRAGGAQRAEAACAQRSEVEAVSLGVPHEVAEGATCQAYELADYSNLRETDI
Protocol: To evaluate in radioligand binding assays the activity of compounds of the invention, human recombinant adrenergic α1D receptor expressed in human embryonic kidney (HEK-293) cells (Kenny, B. A. et al. Br. J. Pharmacol. 115(6):981, 1995) in a 50 mM Tris-HCl buffer, pH 7.4, was used. Compounds of invention were incubated with 0.6 nM [^3H]Prozosin for 60 minutes at 25° C. Non-specific binding was estimated in the presence of 10 μM phentolamine. Receptor proteins were filtered and washed, the filters were then counted to determine [^3H]Prozosin specifically bound. Compounds were screened at 1 μM or lower, using 1% DMSO as vehicle. Biochemical assay results are presented as the percent inhibition of specific binding in Table 3.

Structure (SMILES) | inhibition at 1 µM ([1]; 1 μM) | inhibition at 1 µM ([2]; 1 μM) | inhibition at 1 µM ([3]; 1 μM) | also measured
Cc1ccc2c(c1)c1c(n2CCc2ccccc2)CC2CCC1N2C (stereo not drawn) [Compound 2] | 98% | 100% | 94% | inhibition at 0.01 µM ([1]; 10.0 nM, read-out: Adrenergic α2B, inhibition of ligand binding (10.0 nM)): 85%; inhibition at 0.1 µM ([1]; 0.1 μM, read-out: Adrenergic α2B, inhibition of ligand binding (0.1 μM)): 108%; inhibition at 0.01 µM ([2]; 10.0 nM, read-out: Adrenergic α2A, inhibition of ligand binding (10.0 nM)): 47%; inhibition at 0.1 µM ([2]; 0.1 μM, read-out: Adrenergic α2A, inhibition of ligand binding (0.1 μM)): 88%; inhibition at 0.03 µM ([3]; 0.03 μM, read-out: Adrenergic α1D, inhibition of ligand binding (0.03 μM)): 44%; inhibition at 0.3 µM ([3]; 0.3 μM, read-out: Adrenergic α1D, inhibition of ligand binding (0.3 μM)): 85%
CN1C2CCC1c1c(n(CCC(=O)N3CCNC(=O)C3)c3ccc(Cl)cc13)C2 (stereo not drawn) [Compound 3] | -17% | 8% | 6% | –
CN1C2CCC1c1c(n(CCC(=O)N3CCCC3)c3ccc(Cl)cc13)C2 (stereo not drawn) [Compound 5] | 30% | 4% | 21% | –
CC(=O)N1CCN(C(=O)CCn2c3c(c4cc(Cl)ccc42)C2CCC(C3)N2C)CC1 (stereo not drawn) [Compound 8] | -9% | -2% | 8% | –
CN1C2CCC1c1c(n(CCC(=O)N3CCNCC3)c3ccc(Cl)cc13)C2 (stereo not drawn) [Compound 9] | -15% | 9% | 9% | –
CN1C2CCC1c1c(n(CCC(=O)N3CC[S+]([O-])CC3)c3ccc(Cl)cc13)C2 (stereo not drawn) [Compound 10] | 7% | -7% | 7% | –
CN1C2CCC1c1c(n(CCC(=O)N3CCS(=O)(=O)CC3)c3ccc(Cl)cc13)C2 (stereo not drawn) [Compound 11] | 1% | -10% | -11% | –
CN1C2CCC1c1c(n(CCC(=O)N3CCSCC3)c3ccc(Cl)cc13)C2 (stereo not drawn) [Compound 12] | 10% | 0% | 3% | –
CN1C2CCC1c1c(n(CCC(=O)N3CCOCC3)c3ccc(Cl)cc13)C2 (stereo not drawn) [Compound 13] | 7% | 2% | 8% | –
Cc1ccc2c(c1)c1c(n2CCc2ccc(C)nc2)CC2CCC1N2C (stereo not drawn) [Compound 32] | 82% | 17% | 53% | –
CN1C2CCC1c1c(n(CCc3ccc(Cl)cc3)c3ccc(F)cc13)C2 (stereo not drawn) [Compound 33] | 100% | 69% | 36% | –
CN1C2CCC1c1c(n(CCc3ccc(C(F)(F)F)nc3)c3ccc(Cl)cc13)C2 (stereo not drawn) [Compound 34] | 103% | 42% | 61% | Adrenergic α2B, inhibition of ligand binding (1 μM) ([1]; 1 μM): 100.0%; Adrenergic α2A, inhibition of ligand binding (1 μM) ([2]; 1 μM): 39.0%; Adrenergic α1D, inhibition of ligand binding (1 μM) ([3]; 1 μM): 56.0%
CN1C2CCC1c1c(n(CCc3ccc(F)cc3)c3ccc(F)cc13)C2 (stereo not drawn) [Compound 35] | 110% | 93% | 78% | –
CN1C2CCC1c1c(n(CCCc3ccc(C(F)(F)F)nc3)c3ccc(Cl)cc13)C2 (stereo not drawn) [Compound 37] | 51% | 10% | 12% | –
Cc1ccc(CCCn2c3c(c4cc(Cl)ccc42)C2CCC(C3)N2C)cn1 (stereo not drawn) [Compound 38] | 76% | 33% | 50% | –
CN1C2CCC1c1c(n(CCCc3ccc(Cl)cc3)c3ccc(Cl)cc13)C2 (stereo not drawn) [Compound 39] | 54% | 68% | 11% | –
Cc1ccc(C(O)Cn2c3c(c4cc(Cl)ccc42)C2CCC(C3)N2C)cn1 (stereo not drawn) [Compound 52] | 85% | 46% | 33% | –
Cc1ccc2c(c1)c1c(n2CC(C)(O)c2ccc(Cl)cc2)CC2CCC1N2C (stereo not drawn) [Compound 54] | 94% | 75% | 25% | –
Cc1ccc2c(c1)c1c(n2CCc2ccccc2)CC2CCCC1N2C (stereo not drawn) [Compound 56] | 100% | 92% | 65% | –
CN1C2CCC1c1c(n(CCc3ccc(F)cc3)c3ccc(Cl)cc13)C2 (stereo not drawn) [Compound 57] | 98% | 96% | 69% | –
CN1C2CCC1c1c(n(CCc3ccc(Cl)cc3)c3ccc(Cl)cc13)C2 (stereo not drawn) [Compound 58] | 99% | 98% | 74% | –
CN1C2CCC1c1c(n(CC(=O)N3CCOCC3)c3ccc(Cl)cc13)C2 (stereo not drawn) [Compound 59, 2-(2-chloro-11-methyl-5,6,7,8,9,10-Hexahydro-7,10-iminocyclohept[b]indol-5-yl)-1-morpholinoethanone] | 20% | 17% | 2% | –
CN1C2CCC1c1c(n(CC(=O)N3CCCC3)c3ccc(Cl)cc13)C2 (stereo not drawn) [Compound 60] | 5% | 2% | 1% | –
Cc1ccc(CCn2c3c(c4cc(Cl)ccc42)C2CCC(C3)N2C)cc1 (stereo not drawn) [Compound 61] | 96% | 97% | 80% | –
Cc1ccc2c(c1)c1c(n2CCc2ccc(F)cc2)CC2CCC1N2C (stereo not drawn) [Compound 62] | 104% | 96% | 83% | –
CCOC(=O)CCn1c2c(c3cc(Cl)ccc31)C1CCC(C2)N1C (stereo not drawn) [Compound 70, ethyl 3-(2-chloro-11-methyl-5,6,7,8,9,10-hexahydro-7,10-iminocyclohept[b]indol-5-yl)propanoate] | 51% | 3% | 26% | –
